Measured values reported in article PMC13058478 (Frontiers in Pharmacology, 2026).

Test: Caco-2 passive permeability A to B
Format: in vitro ADME
Conditions: Caco-2, A to B
Experimental: The concentration of each compound in the respective samples was determined by LC-MS.

For `CC(C)NCC(O)COc1cccc2ccccc12` (stereo not shown) [Propranolol], the “Apparent passive permeability A to B Paap, Min” value was 18.41 10^-6 cm/s.
